Assay results as given in US20250213505A1, “DEVICES AND METHODS FOR DELIVERING SYNERGISTIC ACTIVE AGENTS TO TARGET SITES” (priority 2023, published 2025).
Read-outs that look alike come from different tables or passages of the source.

Experiments:
Type in all cases: cell-based
S. aureus (ATCC 6538) [1] = assay: Minimal bactericidal concentration, serial 2-fold dilution
Protocol: (§1) The minimal bactericidal concentration (MBC) of benzalkonium chloride was determined against S. aureus (ATCC 6538), P. aeruginosa (ATCC 15442), and E. coli (ATCC BAA 1427) by serial 2-fold dilution experiments. A solution of chlorhexidine (0.025% w/w) was used as a positive control and comparator.

[2] = test system: P. aeruginosa (ATCC 15442); assay: as above
Protocol: as §1

E. coli (ATCC BAA 1427) [3] = assay: as above
Protocol: as §1

S. aureus (ATCC 6538) [4] = assay: Minimum inhibitory concentration / growth inhibition, serial 2-fold dilution
Protocol: as §1, with “inhibitory” for “bactericidal”, “(MIC, the minimum inhibitory concentration required for 90% growth reduction)” for “(MBC)”

[5] = test system: P. aeruginosa (ATCC 15442); assay: as above
Protocol: as §1, with “inhibitory” for “bactericidal”, “(MIC, the minimum inhibitory concentration required for 90% growth reduction)” for “(MBC)”

E. coli (ATCC BAA 1427) [6] = assay: as above
Protocol: as §1, with “inhibitory” for “bactericidal”, “(MIC, the minimum inhibitory concentration required for 90% growth reduction)” for “(MBC)”

E. coli = assay: Chequerboard assay, FIC and synergy analysis; settings: for MIC: Escherichia coli
Protocol: (§2) Chlorhexidine gluconate (CHG) and benzalkonium chloride (BZK) were analyzed by chequerboard assay with each test organism to determine potential additive, synergistic, antagonistic activity. The test organisms S. aureus, P. aeruginosa, and E. coli were tested at ranges of chlorhexidine gluconate (0.122-15.625 μg/mL, 1.25-160 μg/mL, and […], respectively) and benzalkonium chloride (0.029-3.75 μg/mL, 0.4688-60 μg/mL, and 0.2344-30 μg/mL, respectively). The results of the chequerboard experiment are shown in Table X. FIC was calculated by the following Equation 2: […]

S. aureus = assay: Chequerboard assay, FIC and synergy analysis; settings: for MIC: Staphylococcus aureus
Protocol: as §2

P. aeruginosa = assay: Chequerboard assay, FIC and synergy analysis; settings: for MIC: Pseudomonas aeruginosa
Protocol: as §2

[7] = concentration 250 μg/mL (0.025% w/w), positive control
[8] = concentration 250 μg/mL (0.025% w/w), positive control, listed as chlorhexidine
[9] = concentration 250 μg/mL, positive control
[10] = read-out: MIC of CHG in Presence of BZK
[11] = concentration 0.46875 μg/mL, average of triplicate
[12] = concentration 0.9375 μg/mL, average of triplicate
[13] = concentration 1.875 μg/mL, average of triplicate
[14] = concentration 3.75 μg/mL, average of triplicate
[15] = concentration 7.5 μg/mL, average of triplicate
[16] = concentration 15 μg/mL, average of triplicate
[17] = concentration 30 μg/mL, average of triplicate
[18] = concentration 60 μg/mL, average of triplicate
[19] = serial 2-fold dilution, triplicate
[20] = concentration 0.46875 μg/mL, triplicate
[21] = concentration 0.9375 μg/mL, triplicate
[22] = concentration 1.875 μg/mL, triplicate
[23] = concentration 3.75 μg/mL, triplicate
[24] = concentration 7.5 μg/mL, triplicate
[25] = concentration 15 μg/mL, triplicate
[26] = concentration 30 μg/mL, triplicate
[27] = concentration 60 μg/mL, triplicate

N=C(NCCCCCCNC(=N)NC(=N)Nc1ccc(Cl)cc1)NC(=N)Nc1ccc(Cl)cc1 [Chlorhexidine gluconate, 1-[amino-[6-[amino-[amino-(4-chlorophenyl)amino-methylidene]amino-methylidene]aminohexylimino]methyl]imino-N-(4-chlorophenyl)-methanediamine; (2R,3S,4R,5R)-2,3,4,5,6-pentahydroxyhexanoic acid.]
Number of Colonies (S. aureus (ATCC 6538) [1]; [7]): 0
Number of Colonies (S. aureus (ATCC 6538) [1]; [8]): no colonies
CFU/mL (S. aureus (ATCC 6538) [1]; [9]): 0 CFU/mL
Number of Colonies [2, 7]: 0
Number of Colonies [2, 8]: no colonies
CFU/mL [2, 9]: 0 CFU/mL
Number of Colonies (E. coli (ATCC BAA 1427) [3]; [7]): 0
Number of Colonies (E. coli (ATCC BAA 1427) [3]; [8]): no colonies
CFU/mL (E. coli (ATCC BAA 1427) [3]; [9]): 0 CFU/mL
inhibition at 250 µg/mL (S. aureus (ATCC 6538) [4]; Staphylococcus aureus, ATCC6538, read-out: Average Growth Inhibition (%)): 121%
inhibition at 250 µg/mL ([5]; Pseudomonas aeruginosa, ATCC15442, read-out: Average Growth Inhibition (%)): 81%
inhibition at 250 µg/mL (E. coli (ATCC BAA 1427) [6]; Escherichia coli, BAA1427, concentration 250 μg/mL (0.025% w/w), positive control): 63%
MIC (E. coli; read-out: MIC of CHG Alone): 8 µg/mL
MIC (E. coli; [10]): 4 µg/mL
MIC (S. aureus; read-out: MIC of CHG Alone): 1.95 µg/mL
MIC (S. aureus; [10]): 0.977 µg/mL
MIC (P. aeruginosa; read-out: MIC of CHG Alone (μg/mL)): 40 µg/mL
MIC (P. aeruginosa; read-out: MIC of CHG in Presence of BZK (μg/mL)): 2.5 µg/mL

Benzalkonium chloride
CFU/mL (S. aureus (ATCC 6538) [1]; concentration 0.46875 μg/mL): Lawn
Number of Colonies (S. aureus (ATCC 6538) [1]; [11]): Lawn (‘Lawn’ indicates too many colonies to accurately count (e.g., greater than 250 colonies on an agar plate))
CFU/mL (S. aureus (ATCC 6538) [1]; concentration 0.9375 μg/mL): Lawn
Number of Colonies (S. aureus (ATCC 6538) [1]; [12]): Lawn (‘Lawn’ indicates too many colonies to accurately count (e.g., greater than 250 colonies on an agar plate))
CFU/mL (S. aureus (ATCC 6538) [1]; concentration 1.875 μg/mL): 1133.3 CFU/mL
Number of Colonies (S. aureus (ATCC 6538) [1]; [13]): 11.333
CFU/mL (S. aureus (ATCC 6538) [1]; concentration 3.75 μg/mL): 1500 CFU/mL
Number of Colonies (S. aureus (ATCC 6538) [1]; [14]): 15
CFU/mL (S. aureus (ATCC 6538) [1]; concentration 7.5 μg/mL): 33.333 CFU/mL
Number of Colonies (S. aureus (ATCC 6538) [1]; [15]): 0.333
CFU/mL (S. aureus (ATCC 6538) [1]; concentration 15 μg/mL): 0 CFU/mL
Number of Colonies (S. aureus (ATCC 6538) [1]; [16]): 0
CFU/mL (S. aureus (ATCC 6538) [1]; concentration 30 μg/mL): 0 CFU/mL
Number of Colonies (S. aureus (ATCC 6538) [1]; [17]): 0
CFU/mL (S. aureus (ATCC 6538) [1]; concentration 60 μg/mL): 0 CFU/mL
Number of Colonies (S. aureus (ATCC 6538) [1]; [18]): 0
MBC (defined as having less than 500 CFU/mL) (S. aureus (ATCC 6538) [1]; [19]): 7.5 µg/mL
CFU/mL ([2]; concentration 0.46875 μg/mL): Lawn
Number of Colonies [2, 11]: Lawn (‘Lawn’ indicates too many colonies to accurately count (e.g., greater than 250 colonies on an agar plate))
CFU/mL ([2]; concentration 0.9375 μg/mL): Lawn
Number of Colonies [2, 12]: Lawn (‘Lawn’ indicates too many colonies to accurately count (e.g., greater than 250 colonies on an agar plate))
CFU/mL ([2]; concentration 1.875 μg/mL): Lawn
Number of Colonies [2, 13]: Lawn (‘Lawn’ indicates too many colonies to accurately count (e.g., greater than 250 colonies on an agar plate))
CFU/mL ([2]; concentration 3.75 μg/mL): Lawn
Number of Colonies [2, 14]: Lawn (‘Lawn’ indicates too many colonies to accurately count (e.g., greater than 250 colonies on an agar plate))
CFU/mL ([2]; concentration 7.5 μg/mL): Lawn
Number of Colonies [2, 15]: Lawn (‘Lawn’ indicates too many colonies to accurately count (e.g., greater than 250 colonies on an agar plate))
CFU/mL ([2]; concentration 15 μg/mL): Lawn
Number of Colonies [2, 16]: Lawn (‘Lawn’ indicates too many colonies to accurately count (e.g., greater than 250 colonies on an agar plate))
CFU/mL ([2]; concentration 30 μg/mL): Lawn
Number of Colonies [2, 17]: Lawn (‘Lawn’ indicates too many colonies to accurately count (e.g., greater than 250 colonies on an agar plate))
CFU/mL ([2]; concentration 60 μg/mL): 166.67 CFU/mL
Number of Colonies [2, 18]: 1.6667
MBC (defined as having less than 500 CFU/mL) [2, 19]: 60 µg/mL
CFU/mL (E. coli (ATCC BAA 1427) [3]; concentration 0.46875 μg/mL): Lawn
Number of Colonies (E. coli (ATCC BAA 1427) [3]; [11]): Lawn (‘Lawn’ indicates too many colonies to accurately count (e.g., greater than 250 colonies on an agar plate))
CFU/mL (E. coli (ATCC BAA 1427) [3]; concentration 0.9375 μg/mL): Lawn
Number of Colonies (E. coli (ATCC BAA 1427) [3]; [12]): Lawn (‘Lawn’ indicates too many colonies to accurately count (e.g., greater than 250 colonies on an agar plate))
CFU/mL (E. coli (ATCC BAA 1427) [3]; concentration 1.875 μg/mL): Lawn
Number of Colonies (E. coli (ATCC BAA 1427) [3]; [13]): Lawn (‘Lawn’ indicates too many colonies to accurately count (e.g., greater than 250 colonies on an agar plate))
CFU/mL (E. coli (ATCC BAA 1427) [3]; concentration 3.75 μg/mL): Lawn
Number of Colonies (E. coli (ATCC BAA 1427) [3]; [14]): Lawn (‘Lawn’ indicates too many colonies to accurately count (e.g., greater than 250 colonies on an agar plate))
CFU/mL (E. coli (ATCC BAA 1427) [3]; concentration 7.5 μg/mL): Lawn
Number of Colonies (E. coli (ATCC BAA 1427) [3]; [15]): Lawn (‘Lawn’ indicates too many colonies to accurately count (e.g., greater than 250 colonies on an agar plate))
CFU/mL (E. coli (ATCC BAA 1427) [3]; concentration 15 μg/mL): 0 CFU/mL
Number of Colonies (E. coli (ATCC BAA 1427) [3]; [16]): 0
CFU/mL (E. coli (ATCC BAA 1427) [3]; concentration 30 μg/mL): 0 CFU/mL
Number of Colonies (E. coli (ATCC BAA 1427) [3]; [17]): 0
CFU/mL (E. coli (ATCC BAA 1427) [3]; concentration 60 μg/mL): 0 CFU/mL
Number of Colonies (E. coli (ATCC BAA 1427) [3]; [18]): 0
MBC (defined as having less than 500 CFU/mL) (E. coli (ATCC BAA 1427) [3]; [19]): 15 µg/mL
Average Growth Inhibition (%) (S. aureus (ATCC 6538) [4]; [20]): −30%
Average Growth Inhibition (%) (S. aureus (ATCC 6538) [4]; [21]): 100%
Average Growth Inhibition (%) (S. aureus (ATCC 6538) [4]; [22]): 101%
Average Growth Inhibition (%) (S. aureus (ATCC 6538) [4]; [23]): 101%
Average Growth Inhibition (%) (S. aureus (ATCC 6538) [4]; [24]): 99%
Average Growth Inhibition (%) (S. aureus (ATCC 6538) [4]; [25]): 101%
Average Growth Inhibition (%) (S. aureus (ATCC 6538) [4]; [26]): 101%
Average Growth Inhibition (%) (S. aureus (ATCC 6538) [4]; [27]): 98%
MIC that inhibited greater than 90% growth (S. aureus (ATCC 6538) [4]; [19]): 0.9375 µg/mL
Average Growth Inhibition (%) [5, 20]: 4%
Average Growth Inhibition (%) [5, 21]: 5%
Average Growth Inhibition (%) [5, 22]: 7%
Average Growth Inhibition (%) [5, 23]: 7%
Average Growth Inhibition (%) [5, 24]: 8%
Average Growth Inhibition (%) [5, 25]: 8%
Average Growth Inhibition (%) [5, 26]: 28%
Average Growth Inhibition (%) [5, 27]: 100%
MIC that inhibited greater than 90% growth [5, 19]: 60 µg/mL
Average Growth Inhibition (%) (E. coli (ATCC BAA 1427) [6]; [20]): 3%
Average Growth Inhibition (%) (E. coli (ATCC BAA 1427) [6]; [21]): 5%
Average Growth Inhibition (%) (E. coli (ATCC BAA 1427) [6]; [22]): 6%
Average Growth Inhibition (%) (E. coli (ATCC BAA 1427) [6]; [23]): 7%
Average Growth Inhibition (%) (E. coli (ATCC BAA 1427) [6]; [24]): 18%
Average Growth Inhibition (%) (E. coli (ATCC BAA 1427) [6]; [25]): 100%
Average Growth Inhibition (%) (E. coli (ATCC BAA 1427) [6]; [26]): 100%
Average Growth Inhibition (%) (E. coli (ATCC BAA 1427) [6]; [27]): 100%
MIC that inhibited greater than 90% growth (E. coli (ATCC BAA 1427) [6]; [19]): 15 µg/mL
MIC of BZK Alone (E. coli; alone): 15 µg/mL
MIC of BZK in Presence of CHG (E. coli; in presence of CHG): 0.2344 µg/mL
MIC of BZK Alone (S. aureus; alone): 0.9375 µg/mL
MIC of BZK in Presence of CHG (S. aureus; in presence of CHG): 0.469 µg/mL
MIC of BZK Alone (P. aeruginosa; alone): 60 µg/mL
MIC of BZK in Presence of CHG (P. aeruginosa; in presence of CHG): 7.5 µg/mL
